Publication PMC8067507, “Aryl Urea Based Scaffolds for Multitarget Drug Discovery in Anticancer Immunotherapies” (Pharmaceuticals, 2021)

How the values were obtained:
[1] = system: A549 (pulmonary adenocarcinoma); assay: Cell proliferation assay (MTT); format: cell-based; conditions: Homo sapiens, A549, 48 h, 2 days incubation, average ± SD of three experiments
Text: (§1) The ability of Ureas 13–33 to inhibit cell proliferation was established by means of their IC50 values towards the human tumor cell lines HT-29 (colon adenocarcinoma), MCF-7 (breast adenocarcinoma), HeLa (epithelioid cervix carcinoma) and A549 (pulmonary adenocarcinoma), as well as towards the endothelial cell line HMEC-1 (human microvascular endothelial cells) and the non-tumor cell line HEK-293 (human embryonic kidney cells).
(§2) HT-29, MCF-7, HeLa, A549 and HEK-293 cell lines were maintained in Dulbecco’s modified Eagle’s medium (DMEM) containing glucose (1 g/L), glutamine (2 mM), penicillin (50 μg/mL), streptomycin (50 μg/mL), and amphotericin B (1.25 μg/mL), supplemented with 10% FBS. HMEC-1 cell line was maintained in Dulbecco’s modified Eagle’s medium (DMEM)/low glucose containing glutamine (2 mM), penicillin (50 μg/mL), streptomycin (50 μg/mL), and amphotericin B (1.25 μg/mL), supplemented with 10% FBS. For the development of tube formation assays in Matrigel, HMEC-1 cells were cultured in EGM-2MV Medium supplemented with EGM-2MV SingleQuots.
(§3) In 96-well plates, 3 × 10^3 (HeLa, A549, HMEC-1, HEK-293) or 5 × 10^3 (HT-29, MCF-7) cells per well were incubated with serial dilutions of the tested compounds in a total volume of 100 μL of their respective growth media. The 3-(4,5-dimethylthiazol-2-yl)-2,5-diphenyltetrazolium bromide (MTT; Sigma Chemical Co.) dye reduction assay in 96-well microplates was used. After 2 days of incubation (37 °C, 5% CO2 in a humid atmosphere), 10 μL of MTT (5 mg/mL in phosphate-buffered saline, PBS) was added to each well, and the plate was incubated for a further 3 h (37 °C). After that, the supernatant was discarded and replaced by 100 µL of DMSO to dissolve formazan crystals. The absorbance was then read at 540 nm by spectrophotometry. For all concentrations of compound, cell viability was expressed as the percentage of the ratio between the mean absorbance of treated cells and the mean absorbance of untreated cells. Three independent experiments were performed, and the IC50 values (i.e., concentration half inhibiting cell proliferation) were graphically determined using GraphPad Prism 4 software.

[2] = system: HEK-293 (human embryonic kidney cells); assay: Cell proliferation assay (MTT); format: cell-based; conditions: HEK293, 48 h, 2 days incubation, average ± SD of three experiments
Text: as §1, §2, §3

[3] = system: HMEC-1 (human microvascular endothelial cells); assay: Cell proliferation assay (MTT); format: cell-based; conditions: HMEC-1, 48 h, 2 days incubation, average ± SD of three experiments
Text: as §1, §2, §3

[4] = system: HT-29 (colon adenocarcinoma); assay: Cell proliferation assay (MTT); format: cell-based; conditions: Homo sapiens, HT-29, 48 h, 2 days incubation, average ± SD of three experiments
Text: as §1, §2, §3

[5] = system: HeLa (epithelioid cervix carcinoma); assay: Cell proliferation assay (MTT); format: cell-based; conditions: Homo sapiens, 48 h, 2 days incubation, average ± SD of three experiments
Text: as §1, §2, §3

[6] = system: MCF-7 (breast adenocarcinoma); assay: Cell proliferation assay (MTT); format: cell-based; conditions: Homo sapiens, MCF7, 48 h, 2 days incubation, average ± SD of three experiments
Text: as §1, §2, §3

PD-L1 = PD-L1 (Homo sapiens, UniProt Q9NZQ7); assay: PD-L1 quantification by flow cytometry in HT-29; format: cell-based; conditions: HT-29, 10 μM, 24 h, referred to control (DMSO)
Experimental: We evaluated the effect of the selected compounds on PD-L1 and on c-Myc proteins by flow cytometry after 24 h treatment at 10 μM concentration of compounds. Both, PD-L1 and c-Myc were relatively determined using DMSO treated cells as a negative control and BMS-8 as a positive one.
For the detection of total PD-L1 and c-Myc, cancer cells were seeded (3 × 10^5 cells/well) in 6-well plates and were incubated with the corresponding compounds for 24 h. Then they were collected, fixed, treated with 0.5% Triton^TM X-100 and stained with Alexa Fluor® 647 Rabbit monoclonal Anti-PD-L1 (ab215251) and FITC Rabbit monoclonal anti-c-Myc (ab223913).
We also checked results performing ELISA tests. For ELISA tests, lysates were collected, protein quantification was carried out by Bradford test and, then, PD-L1 and c-Myc were quantified using Human PD-L1 ELISA Kit 28-8 (ab214565) and c-Myc (Total) Human ELISA Kit (KHO2041), respectively, according to the manufacturer’s instructions.

HT-29 cells = assay: Cell proliferation evaluation in co-cultures: HT-29 with Jurkat T cells; format: cell-based, human; conditions: 24 h
Experimental: We also studied the effect of Compounds 16, 23, 26 and 33 on tumor cell proliferation in the presence of PD-1 expressing Jurkat T-cells. For this assay, first interferon γ stimulated HT-29 cells were treated for 24 h with the selected compounds at 10 µM in presence of Jurkat T cells. Then, living cells were counted using trypan blue and a Neubauer chamber and by flow cytometry.
(§4) In 12-well plates, 10^5 HT-29 cells per well were seeded and incubated for 24 h with cell culture medium supplemented with IFN-γ (10 ng/mL; human, Invitrogen®) then medium was change by one containing 4 × 10^5 Jurkat T cells per well and 10 μM of the corresponding compound or DMSO for the control. After 24 h of incubation, supernatants were collected to determine Jurkat T cell living cells and, on the other hand, HT-29 cells were collected with trypsin. Both types of suspension cells were counted with the Neubauer chamber and trypan blue and also by flow cytometry.

Jurkat T cells = assay: Jurkat T cell proliferation and population distribution in co-cultures with HT-29; format: cell-based, human; conditions: co-cultured with HT-29, 10 μM, 24 h
Text: We also determine Jurkat T cell proliferation in those co-cultures from the corresponding media by flow cytometry. […] All samples provided similar population distribution except by those treated with Compound 16, in which an enhancement of size and complexity is observed.
Data provided in Figure 7 show the density of living Jurkat T cells in the treated co-cultures with HT-29. The graphics include cell distribution population by size and complexity in each case.
as §4

VEGFR-2 = VEGFR-2 (Homo sapiens, UniProt P35968); assay: VEGFR-2 quantification by flow cytometry in HT-29; format: cell-based; set-up: Both membrane and total VEGFR-2 were relatively determined using dimethyl sulfoxide (DMSO) treated cells as a negative control; endogenous in cells; host or cells: HT-29 (colon adenocarcinoma) and HMEC-1 (human microvascular endothelial cells); conditions: 24 h
Experimental: We performed the study on both a HT-29 cancer cell line and a human microvessel endothelial cell line (HMEC-1). […] The effect of these selected derivatives on VEGFR-2, on HT-29 tumor cell line and on human microvessel endothelial cells (HMEC) was determined by flow cytometry technique. […] For these assays, cells were incubated for 24 h in the presence of the corresponding compounds at 10 µM concentration.

[7] = HT-29, 10 µM, relative to DMSO control

Sequence of VEGFR-2 (P35968 20-1356): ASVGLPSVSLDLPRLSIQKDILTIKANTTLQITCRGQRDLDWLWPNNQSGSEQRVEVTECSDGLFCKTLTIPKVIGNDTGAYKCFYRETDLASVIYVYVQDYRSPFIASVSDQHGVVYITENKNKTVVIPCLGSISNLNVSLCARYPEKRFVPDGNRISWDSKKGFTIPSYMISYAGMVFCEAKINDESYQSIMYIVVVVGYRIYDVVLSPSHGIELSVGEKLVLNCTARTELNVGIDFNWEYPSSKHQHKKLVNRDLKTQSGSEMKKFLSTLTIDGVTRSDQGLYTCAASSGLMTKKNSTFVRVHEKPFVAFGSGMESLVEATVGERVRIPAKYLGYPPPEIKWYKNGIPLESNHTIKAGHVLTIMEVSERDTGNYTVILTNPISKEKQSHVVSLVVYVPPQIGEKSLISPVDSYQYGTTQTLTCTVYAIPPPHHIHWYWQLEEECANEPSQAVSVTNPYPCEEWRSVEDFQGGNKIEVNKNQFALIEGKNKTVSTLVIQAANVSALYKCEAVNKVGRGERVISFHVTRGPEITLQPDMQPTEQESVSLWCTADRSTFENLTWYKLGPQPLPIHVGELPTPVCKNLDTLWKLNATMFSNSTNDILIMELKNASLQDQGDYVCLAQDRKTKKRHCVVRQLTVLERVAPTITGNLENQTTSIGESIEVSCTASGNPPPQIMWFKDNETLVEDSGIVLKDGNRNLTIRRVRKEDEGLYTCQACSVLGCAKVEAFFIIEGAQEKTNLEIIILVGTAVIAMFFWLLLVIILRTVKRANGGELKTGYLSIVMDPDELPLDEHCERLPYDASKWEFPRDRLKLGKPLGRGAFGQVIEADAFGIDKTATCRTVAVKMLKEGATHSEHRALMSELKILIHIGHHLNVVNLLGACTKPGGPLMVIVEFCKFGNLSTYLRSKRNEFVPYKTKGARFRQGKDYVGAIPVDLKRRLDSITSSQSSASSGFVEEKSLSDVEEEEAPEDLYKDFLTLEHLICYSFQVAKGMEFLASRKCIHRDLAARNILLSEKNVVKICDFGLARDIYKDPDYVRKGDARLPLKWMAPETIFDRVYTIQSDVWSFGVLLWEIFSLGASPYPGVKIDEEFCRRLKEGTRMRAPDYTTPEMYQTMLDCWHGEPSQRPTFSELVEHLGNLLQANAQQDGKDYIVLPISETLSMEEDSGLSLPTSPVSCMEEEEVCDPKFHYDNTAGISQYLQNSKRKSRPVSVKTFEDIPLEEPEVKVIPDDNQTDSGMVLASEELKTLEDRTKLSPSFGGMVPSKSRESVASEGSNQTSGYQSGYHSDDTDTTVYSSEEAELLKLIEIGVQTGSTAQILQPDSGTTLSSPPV
Sequence of PD-L1 (Q9NZQ7 19-290): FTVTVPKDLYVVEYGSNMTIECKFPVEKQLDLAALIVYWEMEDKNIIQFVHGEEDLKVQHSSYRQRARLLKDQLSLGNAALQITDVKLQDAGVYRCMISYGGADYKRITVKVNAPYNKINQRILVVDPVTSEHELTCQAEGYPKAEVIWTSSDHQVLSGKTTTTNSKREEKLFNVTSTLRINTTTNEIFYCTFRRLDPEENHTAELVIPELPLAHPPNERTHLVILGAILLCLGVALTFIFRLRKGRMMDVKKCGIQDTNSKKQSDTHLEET

- IC50 [1]: 12 ± 2 µM
- IC50 [4]: 17 ± 1 µM
- IC50 [5]: 12 ± 4 µM
- IC50 [6]: 24 ± 7 µM
- PD-L1 (%) relative expression (PD-L1): 17 ± 5%
- inhibition at 10 µM (VEGFR-2; 10 µM, statement for HT-29 and HMEC-1, read-out: inhibition of both membrane and total VEGFR-2): > 50%
- Membrane VEGFR-2 (%) (VEGFR-2; [7]): 39 ± 9%
- Total VEGFR-2 (%) (VEGFR-2; [7]): 55 ± 10%
Structure (SMILES): COc1ccc(/C=C\c2cccc(NC(=O)Nc3ccc(Br)cc3)c2)cc1 [Compound 16]
- IC50 [2]: 10 ± 2 µM
- IC50 [3]: 27 ± 8 µM
- inhibition at 10 µM (HT-29 cells; Homo sapiens, HT-29, co-cultured with Jurkat T-cells): ~90%
- Living HT-29 cell proliferation (%) (HT-29 cells; IFN-γ stimulated HT-29 co-cultured with Jurkat T cells, 10 µM, five experiments): 9%
- effect on Jurkat T cell proliferation (Jurkat T cells): hardly affect proliferation of T cell
- effect on T cell size and complexity (morphology) (Jurkat T cells): an increase on their size and complexity
